{"source": "paper PMC7226075", "about": "“A Novel Serine Protease Inhibitor PE-BBI Ameliorates Cockroach Extract-Mediated Airway Epithelial Barrier Dysfunction” (Biomolecules, 2020)", "key": {"BEAS-2B cells": {"system": "BEAS-2B cells", "conditions": "ref [13], cited from earlier work"}, "[1]": {"system": "cockroach extract (CRE) trypsin-like protease (TLP) activity", "assay": "Inhibition of CRE trypsin-like protease (TLP) activity, fluorogenic peptide substrate-based assay", "format": "biochemical, German cockroach", "conditions": "Boc-QAR-NH2Mec 50 µM, λex 380/λem 460 nm, 37 °C, 100 μL, inhibitors 0.01–10 μM, four-parameter logistic fit; mean (95% CI) in Figure 1B, n ≥ 4", "description": "Whole-body German cockroach extract was sourced from Greer Laboratories (USA). All other reagents were obtained from Sigma-Aldrich unless otherwise indicated.\n(§1) Cleavage of the fluorogenic peptide substrate Boc-QAR-NH2Mec (50 µM final concentration) (R&D Systems) was used to assay TLP activity with the rate of substrate hydrolysis continuously recorded at λex 380 nm and λem 460 nm using a FLUOstar Optima microplate reader (BMG Labtech). All inhibition assays were performed in microtitre plates maintained at 37 °C in a final volume of 100 μL. Curve fitting and pIC50 (-logIC50) determinations were carried out by fitting to a four-parameter logistic equation (GraphPad Prism)."}, "16HBE cells": {"system": "16HBE cells", "assay": "Cell viability assay (RealTime-Glo MT), submerged 16HBE cells", "format": "cell-based, human", "conditions": "CRE 16.5 µg protein/well, 24 h, inhibitor 50 µM, n = 6", "description": "Cell viability was measured in submerged 16HBE cells using the non-lytic and homogeneous RealTime-Glo MT Cell Viability Assay (Promega) as per the manufacturer’s instructions."}, "recombinant trypsin": {"system": "recombinant trypsin", "assay": "Inhibition of recombinant trypsin, fluorogenic peptide substrate-based activity assay", "format": "biochemical", "conditions": "Boc-QAR-NH2Mec 50 µM, λex 380/λem 460 nm, 37 °C, 100 μL, inhibitors 0.01–10 μM, four-parameter logistic fit; mean (95% CI) in Figure 1B, n ≥ 4", "description": "as §1"}, "[2]": {"system": "16HBE cell surface TLP activity", "assay": "16HBE cell surface TLP activity assay", "format": "cell-based, human", "conditions": "polarised 16HBE, inhibitor 50 µM, Boc-QAR-NH2Mec 50 µM apical, 1 h continuous, λex 380/λem 460 nm; n = 7, mean ± SEM", "description": "Studies were performed using a SV-40-transformed human bronchial epithelial cell line (16HBE14o^-). The 16HBE cells were grown on collagen-coated T75 flasks (Corning) using bronchial epithelial growth medium (BEGM) (Lonza), in a humidified cell culture incubator supplemented with 5% CO2. After trypsinization, cells (5 × 10^5 cells/cm^2) were seeded onto semipermeable transwell filters (Corning) in BEGM and allowed to grow at liquid–liquid interface for 2 days then switched to DMEM/F-12 medium supplemented with 2% (v/v) Ultroser G (Pall-BioSpera) for a further 2 days (liquid–liquid interface), at which point cultures were exposed to air–liquid interface conditions for a further 5–7 day period, whereupon experiments were conducted.\nPolarised 16HBE cells grown on transwell semi-permeable filters were used to assess cell surface TLP activity. Apical cell-surface (membrane-attached) proteolytic activity was measured in stringently washed (using PBS) cells via direct addition of a fluorogenic peptide substrate (50 µM Boc-QAR-–NH2Mec) to the apical compartment with continuous measurement of the formation of –NH2Mec (at λex 380 nm and λem 460 nm) over a 1 h period. Surface activity was determined in the presence and absence of protease inhibitors (GM, pLR-HL or PE-BBI) which were added at a final concentration of 50 µM."}}, "note": "“Also recorded” adds a separate entry of the source."}
{"smiles": "CCOC(=O)c1ccc(OC(=O)CCCCCN=C(N)N)cc1.CS(=O)(=O)O", "note": "[GM, gabexate mesylate]", "values": [{"measurement": "CRE-induced airway epithelial cell damage in presence of GM", "setting": "BEAS-2B cells; previous study", "result": "ameliorates CRE-induced airway epithelial cell damage"}, {"measurement": "CRE-mediated cell damage and inflammation in presence of GM", "setting": "BEAS-2B cells", "result": "reduced CRE-mediated cell damage and inflammation"}, {"measurement": "pIC50 (-logIC50) vs CRE TLP activity", "setting": "[1]", "result": "~ 6.7"}, {"measurement": "Rescue of CRE-induced cell damage (viability)", "setting": "16HBE cells", "result": "failed to do so; also recorded: trend towards modest protection of cells by GM, and pLR-HL, but this was not statistically significant"}, {"measurement": "pIC50 (-logIC50) vs recombinant trypsin", "setting": "recombinant trypsin", "result": 6.76}, {"measurement": "Effect on 16HBE cell surface TLP activity", "setting": "[2]", "result": "significantly reduced"}]}
